We go through 27 compounds from US20160106102A1, “KNOWN AND NEW HETEROCYCLIC COMPOUNDS AS PEST CONTROL AGENTS” (BAYER CROPSCIENCE AKTIENGESELLSCHAFT, priority 2013, published 2016).

Structures are written as SMILES. Read-outs that look alike come from different tables or passages of the source.

The test system of data set [1] is Myzus persicae. Kind of data set: Myzus persicae - spray test. The format is in vivo. As to conditions: application rate of 500 g/ha, after 6 days, sprayed Chinese cabbage leaf discs infested by all stages, 100% = all aphids killed. Put shortly: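 Chinese cabbage leaf discs infested with all stages of green peach aphid sprayed with compound in acetone/DMF formulation with alkylaryl polyglycol ether emulsifier, diluted in emulsifier-containing water. Efficacy (% aphids killed) assessed after 6 days.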

Data set [2] relates to Myzus persicae. Kind of data set: Myzus persicae - sachet test. The format is in vivo. As to conditions: 100% = all animals killed. Put shortly:
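Active ingredient dissolved with 2% N-methylpyrrolidone and 2% diacetone alcohol, diluted in water, then pipetted into nutrient medium. Plate sealed and paired with a plate carrying green peach aphids. Kill in % scored after the set time (100% = all dead, 0% = none dead).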

Data set [3] in a line: log P determination by LC-MS in the acidic range. The format is physicochemical. From the text: The LC-MS determination in the acidic range is effected at pH 2.7 using 0.1% aqueous formic acid and acetonitrile (contains 0.1% formic acid) as eluents, linear gradient from 10% acetonitrile to 95% acetonitrile. Alternatively, the determination is effected in the acidic range at pH 2.3 using 0.1% aqueous phosphoric acid and acetonitrile as eluents; linear gradient from 10% acetonitrile to 95% acetonitrile.

Setting [4] is: application rate of 6 ppm in nutrient medium.
The mark [5] stands for this setting: application rate of 30 ppm in nutrient medium.

Compound `Cc1cc(NC(=O)c2cccnc2)nn1C(F)F` [Compound I-1-8] registered an efficacy in % in the data set with Myzus persicae [1] of 90%. Moreover, the “efficacy (kill in %)” value with Myzus persicae [2] (setting [4]) and in the data set with Myzus persicae [2] (setting [5]) was 100% throughout. Besides, the “log P (acid)” value in data set [3] (LC-MS in the acidic range) is given as 1.19.
For `Cc1cc(NC(=O)c2cccnc2)nn1Cc1ncnn1-c1ccccc1` [Compound I-1-304], the efficacy in % in the data set on Myzus persicae [1] is 100%. The “efficacy (kill in %)” value with Myzus persicae [2] (setting [4]) and in the data set on Myzus persicae [2] (setting [5]) was 100% each time. Moreover, the “log P (acid)” value in data set [3] (LC-MS in the acidic range) was determined as 1.32.
Turning to `Cc1cc(NC(=O)c2cccnc2)nn1CSc1ncccn1` [Compound I-1-234], in the data set on Myzus persicae [1], the efficacy in % is recorded as 90%. Also, the “efficacy (kill in %)” value in the data set with Myzus persicae [2] (setting [4]) and with Myzus persicae [2] (setting [5]) was 100% each time. In data set [3] (LC-MS in the acidic range), the “log P (acid)” value was 1.25.
Compound `O=C(Nc1ccn(CC(F)F)n1)c1cccnc1` [Compound I-1-13] came in with an efficacy in % in the data set with Myzus persicae [1] of 90%. The “efficacy (kill in %)” value with Myzus persicae [2] (setting [4]) and with Myzus persicae [2] (setting [5]) was 100% throughout. For the same compound, the “log P (acid)” value in data set [3] (LC-MS in the acidic range) came out at 0.74.
Regarding `Cc1cc(NC(=O)c2cccnc2)nn1Cn1nc(C)n(C)c1=O` [Compound I-1-143], the efficacy in % in the data set with Myzus persicae [1] is listed as 90%. The “efficacy (kill in %)” value in the data set with Myzus persicae [2] (setting [4]) and in the data set on Myzus persicae [2] (setting [5]) was 100% each time. Moreover, the “log P (acid)” value in data set [3] (LC-MS in the acidic range) amounted to 0.72.
Turning to `CNC(=O)n1nc(NC(=O)c2cccnc2)cc1C` [Compound I-1-292], the efficacy in % in the data set on Myzus persicae [1] is given as 100%. Also, the “efficacy (kill in %)” value in the data set with Myzus persicae [2] (setting [4]) and in the data set on Myzus persicae [2] (setting [5]) was 100% throughout. Moreover, the “log P (acid)” value in data set [3] (LC-MS in the acidic range) turned out to be 0.97.
`Cc1cc(NC(=O)c2cccnc2)nn1C(=O)NCC(C)C` [Compound I-1-320] showed an efficacy in % in the data set with Myzus persicae [1] of 90%. For the same compound, the “efficacy (kill in %)” value in the data set with Myzus persicae [2] (setting [4]) and in the data set with Myzus persicae [2] (setting [5]) was 100% each time. Besides, the “log P (acid)” value in data set [3] (LC-MS in the acidic range) turned out to be 1.89.
In turn, `COc1ccc([N+](=O)[O-])cc1Cn1cnc(NC(=O)c2cccnc2)n1` [Compound I-2-4] showed an efficacy in % with Myzus persicae [1] of 90%. Moreover, the “efficacy (kill in %)” value in the data set on Myzus persicae [2] (setting [5]) was found to be 100%. Moreover, the “log P (acid)” value in data set [3] (Table 2, compounds of the formula (I-2), acidic range pH 2.7 or pH 2.3) is recorded as 1.13.
`Cc1cc(NC(=O)c2cccnc2)nn1C(=O)NCc1ccccn1` [Compound I-1-329] had an efficacy in % in the data set on Myzus persicae [1] of 90%. Besides, the “efficacy (kill in %)” value with Myzus persicae [2] (setting [4]) and in the data set on Myzus persicae [2] (setting [5]) was 100% each time. Also, the “log P (acid)” value in data set [3] (LC-MS in the acidic range) is reported as 0.88.
The compound `COCC(=O)n1nc(NC(=O)c2cccnc2)cc1C` [Compound I-1-261] gave an efficacy in % in the data set on Myzus persicae [1] of 100%. Besides, the “efficacy (kill in %)” value with Myzus persicae [2] (setting [4]) and in the data set with Myzus persicae [2] (setting [5]) was 100% throughout. In data set [3] (LC-MS in the acidic range), the “log P (acid)” value is reported as 1.17.
`Cc1cc(NC(=O)c2cccnc2)nn1CC1CC1(Cl)Cl` (stereo not drawn) [Compound I-1-237]: in the data set on Myzus persicae [1], the efficacy in % is reported as 90%. Also, the “efficacy (kill in %)” value in the data set with Myzus persicae [2] (setting [4]) and in the data set on Myzus persicae [2] (setting [5]) was 100% each time. The “log P (acid)” value in data set [3] (LC-MS in the acidic range) is given as 1.84.
Regarding `CCSCCn1nc(NC(=O)c2cccnc2)cc1C` [Compound I-1-189], in the data set on Myzus persicae [1], the efficacy in % is reported as 90%. Besides, the “efficacy (kill in %)” value in the data set with Myzus persicae [2] (setting [4]) and in the data set on Myzus persicae [2] (setting [5]) was 100% throughout. Further, the “log P (acid)” value in data set [3] (LC-MS in the acidic range) was determined as 1.53.
In the data set with Myzus persicae [1], `O=C(Nc1nn(Cc2ncccn2)c2ccccc12)c1cccnc1` [Compound I-1-215] yielded an efficacy in % of 90%. Besides, the “efficacy (kill in %)” value with Myzus persicae [2] (setting [4]) and with Myzus persicae [2] (setting [5]) was 100% in each case. Also, the “log P (acid)” value in data set [3] (LC-MS in the acidic range) worked out at 1.16.
For `CCS(=O)(=O)N(C)C(=O)n1nc(NC(=O)c2cccnc2)cc1C` [Compound I-1-289], the efficacy in % with Myzus persicae [1] was 90%. Moreover, the “efficacy (kill in %)” value with Myzus persicae [2] (setting [4]) and with Myzus persicae [2] (setting [5]) was 100% each time. Moreover, the “log P (acid)” value in data set [3] (LC-MS in the acidic range) is 1.5.
In the case of `CCSCn1nc(NC(=O)c2cccnc2)cc1C` [Compound I-1-242, N-{1-[(Ethylsulphanyl)methyl]-5-methyl-1H-pyrazol-3-yl}nicotinamide], the pest or weed control at 500 g/ha with Myzus persicae [1] (Myzus persicae, foliar, 144 h, read-out: efficacy in %) came out at 100%. The pest or weed control at 6 ppm with Myzus persicae [2] (Myzus persicae, application rate of 6 ppm in nutrient medium, read-out: efficacy (kill in %)) was 100%. In addition, the pest or weed control at 30 ppm with Myzus persicae [2] (Myzus persicae, application rate of 30 ppm in nutrient medium, read-out: efficacy (kill in %)) worked out at 100%. Also, the chromatographic logP is 1.49 in data set [3] (pH 2.7, LC-MS in the acidic range, read-out: log P (acid)); 1.49 in data set [3] (pH 2.7, values given in the synthesis examples and NMR lists, read-out: HPLC-MS: log P).
In turn, `Cc1cc(NC(=O)c2cccnc2)nn1C(=O)Oc1ccccc1` [Compound I-1-233] had an efficacy in % in the data set with Myzus persicae [1] of 90%. In addition, the “efficacy (kill in %)” value in the data set on Myzus persicae [2] (setting [4]) and in the data set with Myzus persicae [2] (setting [5]) was 100% in each case. In addition, the “log P (acid)” value in data set [3] (LC-MS in the acidic range) was found to be 2.
Turning to `COC(=O)n1nc(NC(=O)c2cccnc2)cc1C` [Compound I-1-126], the efficacy in % in the data set on Myzus persicae [1] is reported as 90%. For the same compound, the “efficacy (kill in %)” value in the data set on Myzus persicae [2] (setting [4]) and in the data set on Myzus persicae [2] (setting [5]) was 100% in each case. In addition, in data set [3] (LC-MS in the acidic range), the “log P (acid)” value amounted to 1.08.
In turn, `Cc1cc(NC(=O)c2cccnc2)nn1C(=O)c1ncccn1` [Compound I-1-345] gave an efficacy in % with Myzus persicae [1] of 90%. Also, the “efficacy (kill in %)” value with Myzus persicae [2] (setting [4]) and with Myzus persicae [2] (setting [5]) was 100% in each case. Further, the “log P (acid)” value in data set [3] (LC-MS in the acidic range) is reported as 1.11.
The compound `CCOC(CNC(=O)n1nc(NC(=O)c2cccnc2)cc1C)OCC` [Compound I-1-170] gave an efficacy in % with Myzus persicae [1] of 90%. In addition, the “efficacy (kill in %)” value in the data set on Myzus persicae [2] (setting [4]) and in the data set with Myzus persicae [2] (setting [5]) was 100% each time. For the same compound, in data set [3] (LC-MS in the acidic range), the “log P (acid)” value is recorded as 1.88.
The compound `Cc1cc(NC(=O)c2cccnc2)nn1CN1CCCNC1=O` [Compound I-1-149] returned an efficacy in % in the data set with Myzus persicae [1] of 90%. For the same compound, the “efficacy (kill in %)” value in the data set with Myzus persicae [2] (setting [4]) and in the data set with Myzus persicae [2] (setting [5]) was 100% each time. The “log P (acid)” value in data set [3] (LC-MS in the acidic range) came out at 0.62.
Turning to `CSCCC(=O)n1nc(NC(=O)c2cccnc2)cc1C` [Compound I-1-266], the efficacy in % in the data set with Myzus persicae [1] turned out to be 90%. Also, the “efficacy (kill in %)” value in the data set on Myzus persicae [2] (setting [4]) and in the data set on Myzus persicae [2] (setting [5]) was 100% each time. Moreover, in data set [3] (LC-MS in the acidic range), the “log P (acid)” value is given as 1.87.
As for `COCn1nc(NC(=O)c2cccnc2)cc1C` [Compound I-1-175], the efficacy in % in the data set on Myzus persicae [1] is on record as 100%. Moreover, the “efficacy (kill in %)” value with Myzus persicae [2] (setting [4]) and with Myzus persicae [2] (setting [5]) was 100% in each case. In addition, in data set [3] (LC-MS in the acidic range), the “log P (acid)” value was determined as 0.71.
`Cc1cc(NC(=O)c2cccnc2)nn1CC(F)F` [Compound I-1-4] had an efficacy in % with Myzus persicae [1] of 100%. The “efficacy (kill in %)” value in the data set with Myzus persicae [2] (setting [4]) and in the data set on Myzus persicae [2] (setting [5]) was 100% throughout. Moreover, in data set [3] (LC-MS in the acidic range), the “log P (acid)” value is 1.05.
As for `Cn1ccc(NC(=O)c2cccnc2)n1` [Compound I-1-198], the efficacy in % in the data set on Myzus persicae [1] is recorded as 90%. Besides, the “efficacy (kill in %)” value in the data set on Myzus persicae [2] (setting [4]) and with Myzus persicae [2] (setting [5]) was 100% throughout. Also, the “log P (acid)” value in data set [3] (LC-MS in the acidic range) was determined as 0.22.
`Cc1cc(NC(=O)c2cccnc2)nn1C(=O)NC(C)C` [Compound I-1-287] returned an efficacy in % in the data set on Myzus persicae [1] of 90%. The “efficacy (kill in %)” value in the data set on Myzus persicae [2] (setting [4]) and in the data set with Myzus persicae [2] (setting [5]) was 100% each time. For the same compound, the “log P (acid)” value in data set [3] (LC-MS in the acidic range) was found to be 1.46.
In the data set with Myzus persicae [1], `Cc1cc(NC(=O)c2cccnc2)nn1CC1CCCO1` (stereo not drawn) [Compound I-1-176] came in with an efficacy in % of 100%. Further, the “efficacy (kill in %)” value in the data set with Myzus persicae [2] (setting [4]) and in the data set on Myzus persicae [2] (setting [5]) was 80% each time. Moreover, in data set [3] (LC-MS in the acidic range), the “log P (acid)” value amounted to 1.06.
`Cc1cc(NC(=O)c2cccnc2)nn1C(=O)NCC(C)(C)C` [Compound I-1-321]: the efficacy in % in the data set with Myzus persicae [1] stood at 100%. Besides, the “efficacy (kill in %)” value in the data set on Myzus persicae [2] (setting [4]) and in the data set on Myzus persicae [2] (setting [5]) was 100% in each case. In data set [3] (LC-MS in the acidic range), the “log P (acid)” value is listed as 2.19.
